What all share (assay): scanMAX kinase panel
Assay type in all cases: binding
What all share (conditions): read-out: % Control; for remaining binding at 1 µM: 1000 nM

The target of test [1] is T1, CAMK4 (Homo sapiens, UniProt Q16566).
T1 construct: purchased DiscoverX scanMAX
T1 sequence (Q16566 1-473): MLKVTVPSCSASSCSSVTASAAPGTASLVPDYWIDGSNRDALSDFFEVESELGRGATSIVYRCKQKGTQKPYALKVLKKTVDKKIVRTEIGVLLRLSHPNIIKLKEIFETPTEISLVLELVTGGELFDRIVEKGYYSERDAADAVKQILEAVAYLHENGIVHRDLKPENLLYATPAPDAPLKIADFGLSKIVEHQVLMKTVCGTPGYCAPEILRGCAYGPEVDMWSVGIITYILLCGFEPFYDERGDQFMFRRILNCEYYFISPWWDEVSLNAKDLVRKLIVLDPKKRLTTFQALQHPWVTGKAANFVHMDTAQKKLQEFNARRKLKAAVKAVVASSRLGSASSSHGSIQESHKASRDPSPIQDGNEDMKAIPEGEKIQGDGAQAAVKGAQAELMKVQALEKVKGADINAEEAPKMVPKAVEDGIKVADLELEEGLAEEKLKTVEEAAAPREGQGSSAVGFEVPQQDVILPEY
An excerpt:
(§1) Supplemental Table S2. scanMAXSM Kinome Assay Results. Complete tabulated data of all 468 kinases from the panel, including
(§2) 403 wild-type and 65 mutant isoforms. […] Cmpd 11 and Cmpd 24

Test [2] addresses T2, GCN2(Kin.Dom.2,S808G) (Homo sapiens, UniProt Q9P2K8, S808G).
T2 construct: GCN2(Kin.Dom.2,S808G); purchased DiscoverX scanMAX
T2 sequence (Q9P2K8 590-1001 S808G limits assumed): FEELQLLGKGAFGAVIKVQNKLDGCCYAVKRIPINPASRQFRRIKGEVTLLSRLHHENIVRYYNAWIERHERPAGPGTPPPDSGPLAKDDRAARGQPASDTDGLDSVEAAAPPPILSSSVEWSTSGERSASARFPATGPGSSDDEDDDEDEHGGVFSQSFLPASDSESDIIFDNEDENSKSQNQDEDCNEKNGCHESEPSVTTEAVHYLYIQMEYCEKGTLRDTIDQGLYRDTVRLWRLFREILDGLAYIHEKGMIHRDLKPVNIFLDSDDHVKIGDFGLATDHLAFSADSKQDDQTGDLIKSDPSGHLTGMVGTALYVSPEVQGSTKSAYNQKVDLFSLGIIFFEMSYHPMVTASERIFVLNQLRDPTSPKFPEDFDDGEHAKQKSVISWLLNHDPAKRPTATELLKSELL
From the text: as §1, §2

In test [3] the target is T3, CDK11 (Homo sapiens, UniProt Q9BWU1).
T3 construct: purchased DiscoverX scanMAX
T3 sequence (Q9BWU1 whole entry): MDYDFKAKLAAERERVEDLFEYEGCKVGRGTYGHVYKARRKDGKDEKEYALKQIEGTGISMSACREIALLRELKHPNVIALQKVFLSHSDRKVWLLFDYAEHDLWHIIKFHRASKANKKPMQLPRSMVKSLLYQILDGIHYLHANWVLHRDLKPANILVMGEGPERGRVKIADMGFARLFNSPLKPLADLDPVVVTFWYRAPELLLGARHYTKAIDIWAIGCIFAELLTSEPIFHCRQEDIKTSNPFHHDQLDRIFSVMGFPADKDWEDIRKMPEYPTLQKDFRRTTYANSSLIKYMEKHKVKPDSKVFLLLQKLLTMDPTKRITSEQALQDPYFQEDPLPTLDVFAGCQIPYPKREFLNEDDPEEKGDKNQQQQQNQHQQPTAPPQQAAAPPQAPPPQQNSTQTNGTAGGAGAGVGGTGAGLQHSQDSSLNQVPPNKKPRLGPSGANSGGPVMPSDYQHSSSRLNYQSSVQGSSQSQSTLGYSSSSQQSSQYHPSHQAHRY
From the text: as §1, §2

For test [4], the target named is T4, TYK2(JH2domain-pseudok.) (Homo sapiens, UniProt P29597).
T4 construct: TYK2(JH2domain-pseudok.); purchased DiscoverX (scanMAX panel)
T4 sequence (P29597 589-875 limits assumed): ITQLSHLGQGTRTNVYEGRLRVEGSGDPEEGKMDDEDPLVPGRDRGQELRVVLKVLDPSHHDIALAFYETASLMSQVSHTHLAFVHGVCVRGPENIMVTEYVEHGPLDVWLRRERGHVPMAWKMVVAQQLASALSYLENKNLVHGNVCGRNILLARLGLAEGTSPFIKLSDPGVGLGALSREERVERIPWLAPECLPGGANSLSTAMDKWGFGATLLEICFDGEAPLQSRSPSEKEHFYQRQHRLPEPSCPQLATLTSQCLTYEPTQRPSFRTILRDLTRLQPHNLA
From the text: as §1, §2

For test [5], the target named is T5, MAP3K15 (Homo sapiens, UniProt Q6ZN16).
T5 construct: purchased DiscoverX scanMAX
T5 sequence (Q6ZN16 1-1313): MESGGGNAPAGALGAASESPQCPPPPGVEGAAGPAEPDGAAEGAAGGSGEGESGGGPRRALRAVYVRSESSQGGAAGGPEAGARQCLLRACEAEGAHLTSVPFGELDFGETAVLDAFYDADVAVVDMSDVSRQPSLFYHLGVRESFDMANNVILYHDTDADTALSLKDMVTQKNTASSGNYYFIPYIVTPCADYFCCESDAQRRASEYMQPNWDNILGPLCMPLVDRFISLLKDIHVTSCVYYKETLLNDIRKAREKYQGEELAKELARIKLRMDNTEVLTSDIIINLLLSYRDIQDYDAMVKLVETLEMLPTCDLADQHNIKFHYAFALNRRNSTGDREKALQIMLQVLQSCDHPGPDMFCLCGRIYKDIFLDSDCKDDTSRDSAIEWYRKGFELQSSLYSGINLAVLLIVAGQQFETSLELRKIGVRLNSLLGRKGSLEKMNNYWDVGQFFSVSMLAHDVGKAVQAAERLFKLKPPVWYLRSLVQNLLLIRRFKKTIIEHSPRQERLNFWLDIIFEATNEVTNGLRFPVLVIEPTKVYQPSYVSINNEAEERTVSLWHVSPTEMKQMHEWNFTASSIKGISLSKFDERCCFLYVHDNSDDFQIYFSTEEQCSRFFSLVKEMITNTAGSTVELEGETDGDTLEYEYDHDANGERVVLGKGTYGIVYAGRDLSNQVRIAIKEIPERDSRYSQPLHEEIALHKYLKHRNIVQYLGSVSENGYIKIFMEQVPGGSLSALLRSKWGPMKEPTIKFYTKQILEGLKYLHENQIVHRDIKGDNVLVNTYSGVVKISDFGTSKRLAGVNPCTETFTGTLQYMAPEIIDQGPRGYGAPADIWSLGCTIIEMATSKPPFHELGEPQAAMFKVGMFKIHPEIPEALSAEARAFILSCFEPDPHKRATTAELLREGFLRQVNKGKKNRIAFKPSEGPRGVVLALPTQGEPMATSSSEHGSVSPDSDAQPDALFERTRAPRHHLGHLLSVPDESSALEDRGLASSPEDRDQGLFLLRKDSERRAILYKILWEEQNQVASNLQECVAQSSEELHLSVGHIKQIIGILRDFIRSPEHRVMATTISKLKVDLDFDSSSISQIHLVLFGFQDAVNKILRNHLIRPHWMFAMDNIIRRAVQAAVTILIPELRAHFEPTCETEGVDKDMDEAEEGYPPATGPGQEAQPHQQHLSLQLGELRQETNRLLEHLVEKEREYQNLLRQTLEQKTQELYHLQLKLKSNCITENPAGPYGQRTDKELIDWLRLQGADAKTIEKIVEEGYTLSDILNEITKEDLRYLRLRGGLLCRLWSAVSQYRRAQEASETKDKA
From the text: as §1, §2

For `Cc1cc(NC(=O)[C@H](O)c2cccc(F)c2)ccc1-c1cn(C)c2ncnc(N)c12` [Compound 11, (R)-N-(4-(4-amino-7-methyl-7H-pyrrolo[2,3-d]pyrimidin-5-yl)-3-methylphenyl)-2-(3-fluorophenyl)-2-hydroxy acetamide], the remaining binding at 1 µM in test [1] was 32%; in test [2], 84%; in test [3], 1%; in test [4], 80%; in test [5], 29%.
In the case of `Cc1nc(N)c2c(-c3ccc(NC(=O)[C@H](O)c4cccc(F)c4)cc3C)cn(C)c2n1` [Compound 24], the remaining binding at 1 µM in test [1] amounted to 100%; in test [2] it was 100%; in test [3] it was 89%; in test [4], 79%; in test [5], 82%.
Turning to `Cc1nc(N)c2c(-c3ccc(NC(=O)[C@H](O)c4cccc(C(F)(F)F)c4)cc3C)cn(C)c2n1` [Compound 26], the remaining binding at 0.1 µM was determined as 100% in test [1] (100 nM); 76% in test [2] (100 nM); 89% in test [3] (100 nM); 98% in test [4] (100 nM); 100% in test [5] (100 nM). Further, the remaining binding at 1 µM in test [1] was 75%; in test [2], 94%; in test [3], 8.2%; in test [4], 30%; in test [5], 99%.

The record behind these values is paper PMC9611727, “Optimization of a Novel Mandelamide-Derived Pyrrolopyrimidine Series of PERK Inhibitors” (Pharmaceutics, 2022).
